One experiment deals with Phytophthora infestans. The class given is in vivo. The conditions noted are these: concentration of 500 ppm (w/v) or less, spray or stem base drench.
The test system of a further experiment is Plasmopara viticola. The conditions noted are these: in vivo. Note: key: 1 is little or no control; 2 is moderate control; 3 is good to total control.
For a further experiment, the system named is Pyricularia oryzae. Type of experiment: in vivo. The conditions noted are these: concentration of 500 ppm (w/v) or less, spray or stem base drench.
The next experiment deals with Leptosphaeria nodorum. The conditions noted are these: in vivo.

As to `Cc1ccc(CNC(=O)c2ncc(C(F)(F)F)cc2Cl)cc1` [Compound 215], the “score of disease control (degree of infection visually estimated)” value (“score of disease control” for short) with Phytophthora infestans and in the experiment with Plasmopara viticola was 2 each time.
For `CC(NCc1ncc(C(F)(F)F)cc1Cl)c1ccccc1Cl` (stereo not drawn) [Compound 17], the “score of disease control” value with Pyricularia oryzae is 2.
Consider `CC(=NOc1ncc(C(F)(F)F)cc1Cl)c1ccccc1` [Compound 927], for which the “score of disease control” value in the experiment with Phytophthora infestans is listed as 2.
`COc1ccc(OC)c(CNCc2ncc(C(F)(F)F)cc2Cl)c1` [Compound 49]: the “score of disease control” value in the experiment on Phytophthora infestans is reported as 2.
`CC1CCc2ccccc2C1=NOc1ncc(C(F)(F)F)cc1Cl` (stereo not drawn) [Compound 1101, 2-Methyl-1,2,3,4-tetrahydro-1-naphthalenone O-1-[3-chloror-5-(trifluoromethyl)-2-pyridyl]oxime]: in the experiment on Phytophthora infestans, the “score of disease control” value is reported as 2.
As to `COc1ccccc1C=NOc1ncc(C(F)(F)F)cc1Cl` [Compound 921], the “score of disease control” value with Plasmopara viticola is reported as 2.
For the molecule `CC(NC(=O)c1ncc(C(F)(F)F)cc1Cl)c1ccc(Br)cc1` (stereo not drawn) [Compound 208], the “score of disease control” value in the experiment on Leptosphaeria nodorum is on record as 2.
Still for that read-out and setting: the figure for `CN1C(=O)C(=NOc2ncc(C(F)(F)F)cc2Cl)c2ccccc21` [Compound 1109] is 2; for `O=[N+]([O-])c1ccc(CNCc2ncc(C(F)(F)F)cc2Cl)cc1` [Compound 51] it is 2.
`CCOC(=O)C(c1ncc(C(F)(F)F)cc1Cl)N(Cc1ccc2c(c1)OCO2)C(=O)C(=O)OC` (stereo not drawn) [Compound 12]: the “score of disease control” value with Plasmopara viticola is 2.
For `CCC(=NOc1ncc(C(F)(F)F)cc1Cl)c1ccccc1` [Compound 922], the “score of disease control” value in the experiment with Pyricularia oryzae is on record as 2.
As to `O=C(C=Cc1ncc(C(F)(F)F)cc1Cl)c1ccccc1[N+](=O)[O-]` [Compound 601, 3-[3-Chloro-5-(trifluoromethyl)-2-pyridyl]-1-(2-nitrophenyl)-2-propen-1-one], the “score of disease control” value in the experiment with Phytophthora infestans and in the experiment with Plasmopara viticola was 2 each time.
For the molecule `CN(NC(=O)c1c(Cl)cccc1Cl)c1ncc(C(F)(F)F)cc1Cl` [Compound 109], in the experiment on Plasmopara viticola, the “score of disease control” value is reported as 2.
On to `CC(=NOc1ncc(C(F)(F)F)cc1Cl)c1ccc(C)cc1C` [Compound 915], for which the “score of disease control” value with Plasmopara viticola was 2.
Consider `FC(F)(F)c1cnc(ON=Cc2ccncc2)c(Cl)c1` [Compound 902], for which the “score of disease control” value in the experiment on Phytophthora infestans is given as 2.
Turning to `COc1ccc(C=NOc2ncc(C(F)(F)F)cc2Cl)cc1` [Compound 914], the “score of disease control” value in the experiment on Plasmopara viticola was 2.
As for `Cc1cnc(C(=O)NOc2ncc(C(F)(F)F)cc2Cl)cn1` [Compound 1001], the “score of disease control” value in the experiment with Plasmopara viticola and with Pyricularia oryzae was 2 in each case.
As for `CC(=NOc1ncc(C(F)(F)F)cc1Cl)c1cccn1C` [Compound 906], the “score of disease control” value in the experiment with Leptosphaeria nodorum and with Pyricularia oryzae was 2 throughout.
For `CCC(=NOc1ncc(C(F)(F)F)cc1Cl)c1ccc(Cl)cc1Cl` [Compound 953], the “score of disease control” value in the experiment on Phytophthora infestans is 2.
Consider `CC(NCc1ncc(C(F)(F)F)cc1Cl)c1ccc(F)c(F)c1` (stereo not drawn) [Compound 23, N-{[3-Chloro-5-(trifluoromethyl)-2-pyridyl]methyl}-N-[1-(3,4-difluorophenyl)-ethyl]amine], for which the “score of disease control” value in the experiment with Leptosphaeria nodorum is 2.
Regarding `CC(=NOc1ncc(C(F)(F)F)cc1Cl)c1ccccc1C` [Compound 907], the “score of disease control” value in the experiment on Plasmopara viticola and in the experiment with Pyricularia oryzae was 2 in each case.
In the case of `N#CC(=NOc1ncc(C(F)(F)F)cc1Cl)c1c(Cl)cccc1Cl` (single isomer, unassigned) [Compound 937], the “score of disease control” value in the experiment on Pyricularia oryzae was 2.
Regarding `FC(F)(F)c1cnc(ON=Cc2cccc3ccccc23)c(Cl)c1` [Compound 933], the “score of disease control” value in the experiment on Leptosphaeria nodorum is recorded as 2.
For the molecule `FC(F)(F)c1cnc(ON=Cc2ccccc2Cl)c(Cl)c1` [Compound 929], the “score of disease control” value with Leptosphaeria nodorum is listed as 2.
In the case of `CC(=NOc1ncc(C(F)(F)F)cc1Cl)c1ccccc1Cl` [Compound 901], the “score of disease control” value in the experiment on Plasmopara viticola and with Pyricularia oryzae was 2 in each case.
In the case of `N#CC(=NOc1ncc(C(F)(F)F)cc1Cl)c1ccccc1C#N` [Compound 939], the “score of disease control” value in the experiment with Pyricularia oryzae is listed as 2.
Take `N#CC(=NOc1ncc(C(F)(F)F)cc1Cl)c1ccccc1` [Compound 926]: the “score of disease control” value with Leptosphaeria nodorum is given as 2.
Take `CC(NC(=O)c1ncc(C(F)(F)F)cc1Cl)c1ccc(Cl)cc1` (stereo not drawn) [Compound 207]: the “score of disease control” value with Leptosphaeria nodorum is 2.
As to `CC(NC(=O)c1ncc(C(F)(F)F)cc1Cl)c1c(F)cccc1F` (stereo not drawn) [Compound 202], the “score of disease control” value in the experiment with Phytophthora infestans is recorded as 2.
As for `FC(F)(F)c1cnc(ON=C(c2ccc(Cl)cc2)c2ccc(Cl)cc2)c(Cl)c1` [Compound 958], in the experiment with Plasmopara viticola, the “score of disease control” value is listed as 2.
`CC(C)(C)C(=NOc1ncc(C(F)(F)F)cc1Cl)c1ccccn1` [Compound 912]: in the experiment with Phytophthora infestans, the “score of disease control” value was 2.
For `O=C(NNc1ncc(C(F)(F)F)cc1Cl)c1c(F)cccc1Cl` [Compound 126], the “score of disease control” value in the experiment with Phytophthora infestans, in the experiment with Plasmopara viticola, with Leptosphaeria nodorum and in the experiment on Pyricularia oryzae was 2 in each case.
On to `N#CC(=NOc1ncc(C(F)(F)F)cc1Cl)c1c(Cl)cccc1Cl` (single isomer, unassigned) [Compound 938], for which the “score of disease control” value in the experiment on Pyricularia oryzae is 2.
Same read-out and setting: the figure for `CC(=NOc1ncc(C(F)(F)F)cc1Cl)c1cccs1` [Compound 913] is 2.
Turning to `COc1ccc2c(c1)C(=NOc1ncc(C(F)(F)F)cc1Cl)CCC2` [Compound 1102], the “score of disease control” value with Phytophthora infestans is given as 2.
With `Cc1nc(C)c(C(=O)NOc2ncc(C(F)(F)F)cc2Cl)s1` [Compound 1007], the “score of disease control” value in the experiment on Leptosphaeria nodorum is on record as 2.
Consider `O=C(NNc1ncc(C(F)(F)F)cc1Cl)c1c(Cl)cccc1Cl` [Compound 102], for which the “score of disease control” value in the experiment on Phytophthora infestans and in the experiment on Plasmopara viticola was 2 each time.
In the case of `O=[N+]([O-])c1cccc(C=NOc2ncc(C(F)(F)F)cc2Cl)c1` [Compound 923], the “score of disease control” value in the experiment with Leptosphaeria nodorum and with Pyricularia oryzae was 2 in each case.
On to `CCOC(=O)C(c1ncc(C(F)(F)F)cc1Cl)N(Cc1ccccc1Cl)C(C)=O` (stereo not drawn) [Compound 7], for which the “score of disease control” value in the experiment on Plasmopara viticola and in the experiment with Pyricularia oryzae was 2 throughout.
On to `O=C(NOc1ncc(C(F)(F)F)cc1Cl)c1ccccc1Cl` [Compound 1013], for which the “score of disease control” value in the experiment with Plasmopara viticola is 2.
On to `CCOC(=O)C(c1ncc(C(F)(F)F)cc1Cl)N(Cc1ccccc1Cl)C(=O)C(=O)OC` (stereo not drawn) [Compound 9], for which the “score of disease control” value in the experiment on Plasmopara viticola and in the experiment with Pyricularia oryzae was 2 in each case.

(Values after patent US6939882B1 (priority 1999, dated 2005).)
